Data on seven compounds can be found in ChEMBL document CHEMBL3779829, “Tandem virtual screening targeting the SRA domain of UHRF1 identifies a novel chemical tool modulating DNA methylation” (Eur J Med Chem, 2016).

The source made the active and inactive calls. No cut-off for these calls is given here.

What all share (assay type): cell-based
The target of assay [1] is T1, E3 ubiquitin-protein ligase UHRF1 (Homo sapiens) (UniProt Q96T88).
T1 sequence (whole entry): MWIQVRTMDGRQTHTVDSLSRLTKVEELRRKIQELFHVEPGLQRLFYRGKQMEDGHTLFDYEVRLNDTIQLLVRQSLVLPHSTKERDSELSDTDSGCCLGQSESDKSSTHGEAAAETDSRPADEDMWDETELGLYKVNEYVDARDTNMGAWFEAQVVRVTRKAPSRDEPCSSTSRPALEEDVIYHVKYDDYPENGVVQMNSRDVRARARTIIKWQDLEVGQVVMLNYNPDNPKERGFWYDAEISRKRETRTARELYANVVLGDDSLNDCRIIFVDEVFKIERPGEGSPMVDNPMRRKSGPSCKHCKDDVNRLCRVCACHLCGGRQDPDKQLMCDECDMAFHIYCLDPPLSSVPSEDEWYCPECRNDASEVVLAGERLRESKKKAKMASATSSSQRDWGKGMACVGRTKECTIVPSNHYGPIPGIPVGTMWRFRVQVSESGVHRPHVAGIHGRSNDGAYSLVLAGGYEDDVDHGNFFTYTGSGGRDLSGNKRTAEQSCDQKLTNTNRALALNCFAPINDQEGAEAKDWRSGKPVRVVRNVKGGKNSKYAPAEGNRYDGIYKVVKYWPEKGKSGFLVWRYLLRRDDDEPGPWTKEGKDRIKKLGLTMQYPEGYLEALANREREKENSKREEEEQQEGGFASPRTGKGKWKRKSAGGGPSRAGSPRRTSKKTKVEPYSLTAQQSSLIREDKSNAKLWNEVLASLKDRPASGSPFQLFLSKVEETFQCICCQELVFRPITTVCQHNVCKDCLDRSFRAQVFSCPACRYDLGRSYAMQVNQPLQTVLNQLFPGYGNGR
The experiment in a line: Inhibition of UHRF1/DNMT1 protein interaction in human U251 cells assessed as reduction in 5-methylcytosine level at 15 uM after 72 hrs by ELISA relative to control. The conditions noted are these: U-251.

For assay [2], the target named is T1, E3 ubiquitin-protein ligase UHRF1 (Homo sapiens). The experiment in a line: Inhibition of UHRF1/DNMT1 protein interaction in human U251 cells at 15 uM after 4 hrs by DAPI staining based P-LISA. Particulars: U-251.
For assay [3] the target is unchanged. The experiment in a line: Inhibition of UHRF1 in human MCF7 cells assessed as DNA global demethylation by measuring 5-methylcytosine level at 15 uM after 72 hrs by HPLC-MS/MS analysis (reference value: 1.7 +/- 0.36%). More on the design: scale not given: the % may be the effect or the level left.
The target is the same in assay [4]. As to the kind of experiment: Inhibition of UHRF1 in human MCF7 cells assessed as decrease in methylation at RAR beta exon at 15 uM after 72 hrs by methylation specific-PCR method.
Assay [5] has the same target. The experiment in a line: Inhibition of UHRF1 in human MCF7 cells assessed as reduction in global 5-methylcytosine level at 15 uM after 72 hrs by HPLC-MS/MS analysis relative to control.

For the compound `C/C(NO)=C1\C=NC(=O)NC1=O`, the inhibition in assay [1] and in assay [2] was 50% each time.
On to `c1ccc2c(C3CCN(CCN4CCOCC4)C3)c[nH]c2c1` (stereo unspecified), for which, in assay [3], the Activity amounted to 0.99%. In assay [4], the “RAR beta exon methylation decrease (activity call)” value (“RAR beta exon methylation decrease” for short) was “Active”.
With `O=C1NC(=O)C2(CC2)C(=O)N1`, the Activity in assay [3] was 0.82%. In addition, the inhibition entry in assay [4] was “Active”.
Turning to `CCOC(=O)c1cnc(=O)[nH]c1N`, the Activity in assay [3] was determined as 0.87%. The “RAR beta exon methylation decrease” value in assay [4] is “Active”.
For `Nc1ncn([C@@H]2O[C@H](CO)[C@@H](O)[C@H]2O)c(=O)n1`, the inhibition in assay [5] was found to be 48%. The Activity in assay [3] amounted to 0.88%. The “RAR beta exon methylation decrease” value in assay [4] was “Active”.
Turning to `CN(C)c1c[nH]c(=O)[nH]c1=O`, in assay [3], the Activity amounted to 0.86%. The “RAR beta exon methylation decrease” value in assay [4] was “Active”.
With `CC(=O)c1c[nH]c(=O)[nH]c1=O`, the inhibition in assay [5] turned out to be 56%. Moreover, in assay [3], the Activity turned out to be 0.74%. Further, the “RAR beta exon methylation decrease” value in assay [4] was “Active”.
